Earlier results in patent US5843891A, “Pharmaceutical acceptable compositions containing an alcohol and a hydrophobic drug” (priority 1993, dated 1998).

details: in water at 20° C.

For CCO [ethyl alcohol], which solubility in water is on record?
The solubility in water was “infinitely soluble”.

With CCCCCCO [Example 1-hexyl, 1-hexyl] as the molecule, how does the solubility in water read?
Its solubility in water is 0.6 g per 100 g.

With CCCCCCCCCCO [1-decyl alcohol] as the molecule, how does the solubility in water read?
The solubility in water was “essentially insoluble”.

With CCCCCCCCO [1-octyl alcohol] as the molecule, how does the solubility in water read?
The solubility in water was 0.05 g per 100 g.
